The source of these data is patent US12290601B2, “Pharmaceutical composition comprising axitinib” (Synthon B.V., priority 2019, dated 2025).

For data set [1] the following is noted: among polymorphic forms; cited from earlier work.
A short description of the next data set: Aqueous solubility. It is filed as physicochemical. The conditions noted are these: versus form XLI.
Data set [2] is described as follows: Photo-stability of crystalline forms. It is filed as physicochemical. The note with it: versus form XLI.
The conditions of data set [3]: cited from earlier work.

Molecules are shown by their SMILES. Where two headings read alike, the source gives them in different places.

`CNC(=O)c1ccccc1Sc1ccc2c(/C=C/c3ccccn3)n[nH]c2c1` [Form XLI, N-methyl-2-({3-[(E)-2-pyridin-2-ylethenyl]-1H-indazol-6-yl}sulfanyl)benzamide]: the thermodynamic stability result in data set [1] is recorded as “most thermodynamically stable”.
In the case of `CNC(=O)c1ccccc1Sc1ccc2c(/C=C/c3ccccn3)n[nH]c2c1` [axitinib form IV, N-methyl-2-({3-[(E)-2-pyridin-2-ylethenyl]-1H-indazol-6-yl}sulfanyl)benzamide], the “aqueous solubility, fold higher compared to crystalline axitinib form XLI” value in “Aqueous solubility” was 2-3 fold. The “photo-stability compared to crystalline axitinib form XLI” value in data set [2] is listed as “less photo-stable”.
Take `CNC(=O)c1ccccc1Sc1ccc2c(/C=C/c3ccccn3)n[nH]c2c1` [Axitinib, N-methyl-2-({3-[(E)-2-pyridin-2-ylethenyl]-1H-indazol-6-yl}sulfanyl)benzamide]: the solubility result in data set [3] is reported as “low solubility”; in data set [3] (gastric, pH 1.7), “highly soluble”.
